# Results published in patent publication EP0745595A1, “3-(3-Aryloxyphenyl)-1-(substituted methyl)-s-triazine-2,4,6-oxo or thiotrione herbicidal agents” (American Cyanamid Company, priority 1995, dated 1996).
# Columns and labels:
# Format in all cases: in vivo
# [1] = tested on: ORYZA SATIVA, L. TEBONNET; test: Preemergence herbicidal evaluation, ORYSAT (Rice, Tebonnet); conditions: rated four to five weeks after treatment
# From the text: (§1) Results of herbicide evaluation are expressed on a rating scale (0-9). The scale is based upon a visual observation of plant stand, vigor, malformation, size, chlorosis and overall plant appearance as compared with a control.
# (§2) The preemergence herbicidal activity of the test compounds of the present invention is exemplified by the following tests in which the seeds of a variety of monocotyledonous and dicotyledonous plants are separately mixed with potting soil and planted on top of approximately one inch of soil in separate pint cups. […] The treated cups are then placed on greenhouse benches, watered and cared for in accordance with conventional greenhouse procedures. From four to five weeks after treatment, the tests are terminated and each cup is examined and rated according to the rating system provided in Example 40.
# (§3) The compounds evaluated are reported by compound number given in Example 40.
# [2] = tested on: CASSIA OBTUSIFOLIA, L.; test: Preemergence herbicidal evaluation, CASOB (Sicklepod); conditions: Rate 0.500 kg/ha, rated four to five weeks after treatment
# How it was run: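 Preemergence herbicidal activity against sicklepod was assessed by planting seed mixed with potting soil atop about one inch of soil in pint cups. After treatment the cups were watered and handled per standard greenhouse practice. Tests ended four to five weeks later, with plant stand, vigor, malformation, size, chlorosis and overall appearance scored 0-9 relative to a control.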
# [3] = tested on: CHENOPODIUM ALBUM, L.; test: Postemergence herbicidal evaluation, CHEAL (Lambsquarters, Common)
# How it was run: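 Postemergence herbicidal activity on Chenopodium album was tested by spraying two-week-old seedlings grown in jiffy flats with compound in acetone/water (50/50) plus 0.5% TWEEN®20, using a 40 psi nozzle. Four to five weeks after treatment, stand, vigor, malformation, size, chlorosis and overall appearance were scored 0-9 relative to controls, with repeat tests averaged.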
# [4] = tested on: CHENOPODIUM ALBUM, L.; test: Preemergence herbicidal evaluation, CHEAL (Lambsquarters, Common); conditions: rated four to five weeks after treatment
# How it was run: (§4)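 Seeds mixed with potting soil were planted on about one inch of soil in cups, then sprayed with aqueous acetone solution of test compound at about 0.125 to 0.50 kg per hectare. Plants grown under greenhouse conditions; visual rating on a 0-9 scale versus untreated control at 4-5 weeks.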
# [5] = tested on: IPOMOEA SPP.; test: Postemergence herbicidal evaluation, IPOSS (Morningglory spp.)
# How it was run: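 In this greenhouse postemergence herbicide test on Ipomoea spp. (morningglory), compounds in 50/50 acetone/water with 0.5% TWEEN®20 were sprayed at 40 psi onto seedlings about two weeks old grown in jiffy flats. After four to five weeks, injury was scored on a 0-9 scale covering stand, vigor, malformation, size, chlorosis and overall appearance versus control, with repeat tests averaged.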
# [6] = tested on: AMBROSIA ARTEMISIIFOLIA, L.; test: Preemergence herbicidal evaluation, AMBEL (Ragweed, Common); conditions: rated four to five weeks after treatment
# From the text: as §1, §2, §3
# [7] = tested on: SETARIA VIRIDIS, (L) BEAU; test: Postemergence herbicidal evaluation, SETVI (Foxtail, Green); parameters: key to SETVI rating / Herbicidal effect rating, SETVI / SETVI: 0-9 visual rating scale vs untreated control
# How it was run: (§5)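 Ratings (0-9) reflect visual stand, vigor, malformation, size and chlorosis compared with untreated plants, assessed 4-5 weeks after postemergence spraying. Treatment was applied to roughly two-week-old seedlings at about 0.125-0.500 kg/ha in acetone/water with 0.5% Tween 20; replicate tests were averaged.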
# [8] = tested on: GLYCINE MAX(L) MERR. CV. WILLIAMS; test: Preemergence herbicidal evaluation, GLXMAW (Soybean, Williams); conditions: rated four to five weeks after treatment
# How it was run: as §4
# [9] = tested on: ORYZA SATIVA, L. TEBONNET; test: Rice tolerance to post-transplant applications under flooded paddy conditions, ORYSAT (Rice, Tebonnet); conditions: post-transplant rice, 3-4 weeks after treatment
# How it was run: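 Rated on a visual 0–9 scale against untreated plants 3–4 weeks after application, rice (cv. Tebonnet) tolerance was tested by applying compounds (approx. 0.5–0.063 kg/ha, acetone/water 50/50) to flooded soil three days post-transplant, water kept 1.5–3 cm deep.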
# [10] = tested on: ZEA MAYS L.; test: Preemergence herbicidal evaluation, ZEAMX (Corn, Field); conditions: rated four to five weeks after treatment
# How it was run: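 Preemergence herbicidal activity on field corn: seeds in potting soil were sown atop roughly one inch of soil in separate pint cups, treated, and grown under standard greenhouse care. Four to five weeks post-treatment, stand, vigor, malformation, size, chlorosis and overall appearance were compared with a control and scored 0-9.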
# [11] = tested on: CASSIA OBTUSIFOLIA, L.; test: Postemergence herbicidal evaluation, CASOB (Sicklepod); parameters: key to CASOB rating / Herbicidal effect rating, CASOB / CASOB: 0-9 visual rating scale vs untreated control
# How it was run: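 Spray: acetone/water 50/50 + 0.5% TWEEN 20; rate ~0.125–0.500 kg/ha; nozzle 40 psi; ~2-wk seedlings. Read: visual 0–9 rating at 4–5 wk post-treatment vs control; replicate tests averaged.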
# [12] = tested on: TRITICUM AESTIVUM, CV. APOLLO; test: Preemergence herbicidal evaluation, TRZAWO (Wheat, Winter, CV. APOLLO); conditions: rated four to five weeks after treatment
# From the text: as §1, §2, §3
# [13] = tested on: ECHINOCHLOA CRUS-GALLI, (L) BEAU; test: Postemergence herbicidal evaluation, ECHCG (Barnyardgrass); parameters: key to ECHCG rating / Herbicidal effect rating, ECHCG / ECHCG: 0-9 visual rating scale vs untreated control
# How it was run: as §5
# [14] = tested on: CYPERUS IRIA; test: Preemergence weed control under flooded paddy conditions, CYPIR (Rice Flatsedge); conditions: 0.500 kg/ha, preemergence, 3-4 weeks after treatment
# How it was run: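 This preemergence test mimicked flooded paddy conditions: rice flatsedge propagules were sown in the upper 0.5 cm of silt loam in undrained 32 oz. containers (10.5 cm diameter), with water held 1.5 to 3 cm over the soil. After normal greenhouse care, plants were scored 0-9 for stand, vigor, malformation, size, chlorosis and appearance relative to controls.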
# [15] = tested on: AMBROSIA ARTEMISIIFOLIA, L.; test: Postemergence herbicidal evaluation, AMBEL (Ragweed, Common)
# How it was run: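 Postemergence herbicidal activity on AMBEL (common ragweed) was assessed on two-week-old seedlings grown in jiffy flats. Treatment solutions of 50/50 acetone/water with 0.5% TWEEN®20 surfactant were sprayed at 40 psi. After four to five weeks in the greenhouse, plants were scored 0-9 against a control for stand, vigor, malformation, size, chlorosis and overall appearance, with multiple tests averaged.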
# [16] = tested on: GALIUM APARINE; test: Postemergence herbicidal evaluation, GALAP (Galium); parameters: key to GALAP rating / Herbicidal effect rating, GALAP / GALAP: 0-9 visual rating scale vs untreated control
# How it was run: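 In this postemergence greenhouse test, two-week-old Galium aparine seedlings grown in jiffy flats received a 40 psi spray of compound in acetone/water (50/50) with 0.5% TWEEN®20 surfactant. After four to five weeks, stand, vigor, malformation, size, chlorosis and overall appearance were compared with untreated controls on a 0-9 scale, averaging multiple tests.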
# [17] = tested on: ECHINOCHLOA ORYZOIDES (ARD.)FRITSCH; test: Preemergence weed control under flooded paddy conditions, ECHORC (Watergrass (Calif.)); conditions: 0.500 kg/ha, preemergence, 3-4 weeks after treatment
# How it was run: (§6)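 Visual 0-9 rating against untreated control, covering stand, vigor, malformation, size and chlorosis, scored three to four weeks post-treatment in a greenhouse. Application was into 1.5-3 cm flood water over silt loam sown at 0.5 cm. The 50/50 v/v aqueous/acetone doses were about 0.5, 0.25, 0.125 and 0.063 kg/ha.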
# [18] = tested on: CYPERUS SEROTINUS, ROTTB.; test: Preemergence weed control under flooded paddy conditions, CYPSE (Flatsedge); conditions: 0.500 kg/ha, preemergence, 3-4 weeks after treatment
# How it was run: as §6
# [19] = tested on: ABUTILON THEOPHRASTI, MEDIC.; test: Postemergence herbicidal evaluation, ABUTH (Velvetleaf)
# How it was run: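 This postemergence herbicide test used two-week-old velvetleaf seedlings grown in jiffy flats. Each compound was sprayed at 40 psi as a dispersion in 50/50 acetone/water with 0.5% TWEEN®20 surfactant. Plants then received routine greenhouse care. After four to five weeks, injury was scored visually on a 0-9 scale against a control, and replicate tests were averaged.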
# [20] = tested on: […], PRESL.; test: Preemergence weed control under flooded paddy conditions, MOOVA (Monochoria); conditions: 0.500 kg/ha, preemergence, 3-4 weeks after treatment
# How it was run: as §6
# [21] = tested on: SAGITTARIA PYGMAEA, L.; test: Preemergence weed control under flooded paddy conditions, SAGPY (Arrowhead (Pygmaea)); conditions: 0.500 kg/ha, preemergence, 3-4 weeks after treatment
# How it was run: as §6
smiles,measurement,setting,value
CC(C)OC(=O)Cn1c(=O)n(C)c(=O)n(-c2cc(Oc3ncc(C(F)(F)F)cc3Cl)ccc2Br)c1=O [Compound 44],ORYSAT herbicidal rating,[1]; Rate 0.125 kg/ha,0.0
same,ORYSAT herbicidal rating,[1]; Rate 0.250 kg/ha,0.0
same,ORYSAT herbicidal rating,[1]; Rate 0.500 kg/ha,0.0
same,CASOB herbicidal rating,[2],0.0
same,CHEAL rating,[3]; Rate 0.125 kg/ha,9.0
same,CHEAL rating,[3]; Rate 0.250 kg/ha,9.0
same,CHEAL rating,[3]; Rate 0.500 kg/ha,9.0
same,CHEAL herbicidal rating,[4]; Rate 0.125 kg/ha,9.0
same,CHEAL herbicidal rating,[4]; Rate 0.250 kg/ha,9.0
same,CHEAL herbicidal rating,[4]; Rate 0.500 kg/ha,9.0
same,IPOSS rating,[5]; Rate 0.125 kg/ha,9.0
same,IPOSS rating,[5]; Rate 0.250 kg/ha,9.0
same,IPOSS rating,[5]; Rate 0.500 kg/ha,9.0
same,AMBEL herbicidal rating,[6]; Rate 0.125 kg/ha,0.0
same,AMBEL herbicidal rating,[6]; Rate 0.250 kg/ha,0.0
same,AMBEL herbicidal rating,[6]; Rate 0.500 kg/ha,0.0
same,SETVI rating,[7]; Rate 0.125 kg/ha,9.0
same,SETVI rating,[7]; Rate 0.250 kg/ha,9.0
same,SETVI rating,[7]; Rate 0.500 kg/ha,9.0
same,GLXMAW herbicidal rating,[8]; Rate 0.125 kg/ha,0.0
same,GLXMAW herbicidal rating,[8]; Rate 0.250 kg/ha,0.0
same,GLXMAW herbicidal rating,[8]; Rate 0.500 kg/ha,0.0
same,"Herbicidal effect rating, ORYSAT",[9]; 0.063 kg/ha,1.0
same,"Herbicidal effect rating, ORYSAT",[9]; 0.125 kg/ha,1.0
same,"Herbicidal effect rating, ORYSAT",[9]; 0.250 kg/ha,2.0
same,"Herbicidal effect rating, ORYSAT",[9]; 0.500 kg/ha,3.0
same,ZEAMX herbicidal rating,[10]; Rate 0.125 kg/ha,0.0
same,ZEAMX herbicidal rating,[10]; Rate 0.250 kg/ha,0.0
same,ZEAMX herbicidal rating,[10]; Rate 0.500 kg/ha,0.0
same,CASOB rating,[11]; Rate 0.125 kg/ha,9.0
same,CASOB rating,[11]; Rate 0.250 kg/ha,9.0
same,CASOB rating,[11]; Rate 0.500 kg/ha,9.0
same,TRZAWO herbicidal rating,[12]; Rate 0.125 kg/ha,0.0
same,TRZAWO herbicidal rating,[12]; Rate 0.250 kg/ha,0.0
same,TRZAWO herbicidal rating,[12]; Rate 0.500 kg/ha,0.0
"COC(=O)Cn1c(=O)n(C)c(=O)n(-c2cc(Oc3ccc(C#N)cc3)ccc2[N+](=O)[O-])c1=O [Compound 32, Methyl 3-[5-(p-cyanophenoxy)-2-nitrophenyl]-tetrahydro-5-methyl-2,4,6-trioxo-s-triazine-1(2H)-acetate]",ECHCG rating,[13]; Rate 0.125 kg/ha,0.0
same,ECHCG rating,[13]; Rate 0.250 kg/ha,0.0
same,ECHCG rating,[13]; Rate 0.500 kg/ha,0.0
same,ORYSAT herbicidal rating,[1]; Rate 0.125 kg/ha,2.0
same,ORYSAT herbicidal rating,[1]; Rate 0.250 kg/ha,2.0
same,ORYSAT herbicidal rating,[1]; Rate 0.500 kg/ha,2.0
same,"Herbicidal effect rating, CYPIR",[14],0.0
same,AMBEL rating,[15]; Rate 0.125 kg/ha,0.0
same,AMBEL rating,[15]; Rate 0.250 kg/ha,0.0
same,AMBEL rating,[15]; Rate 0.500 kg/ha,0.0
same,GALAP rating,[16]; Rate 0.125 kg/ha,0.0
same,GALAP rating,[16]; Rate 0.250 kg/ha,0.0
same,GALAP rating,[16]; Rate 0.500 kg/ha,0.0
same,"Herbicidal effect rating, ECHORC",[17],0.0
same,IPOSS rating,[5]; Rate 0.125 kg/ha,0.0
same,IPOSS rating,[5]; Rate 0.250 kg/ha,0.0
same,IPOSS rating,[5]; Rate 0.500 kg/ha,0.0
same,SETVI rating,[7]; Rate 0.125 kg/ha,0.0
same,SETVI rating,[7]; Rate 0.250 kg/ha,0.0
same,SETVI rating,[7]; Rate 0.500 kg/ha,0.0
same,"Herbicidal effect rating, CYPSE",[18],0.0
same,ABUTH rating,[19]; Rate 0.125 kg/ha,0.0
same,ABUTH rating,[19]; Rate 0.250 kg/ha,0.0
same,ABUTH rating,[19]; Rate 0.500 kg/ha,0.0
same,GLXMAW herbicidal rating,[8]; Rate 0.125 kg/ha,0.0
same,GLXMAW herbicidal rating,[8]; Rate 0.250 kg/ha,0.0
same,GLXMAW herbicidal rating,[8]; Rate 0.500 kg/ha,0.0
same,"Herbicidal effect rating, ORYSAT",[9]; 0.500 kg/ha,0.0
same,ZEAMX herbicidal rating,[10]; Rate 0.125 kg/ha,0.0
same,ZEAMX herbicidal rating,[10]; Rate 0.250 kg/ha,0.0
same,ZEAMX herbicidal rating,[10]; Rate 0.500 kg/ha,0.0
same,CASOB rating,[11]; Rate 0.125 kg/ha,0.0
same,CASOB rating,[11]; Rate 0.250 kg/ha,0.0
same,CASOB rating,[11]; Rate 0.500 kg/ha,0.0
same,"Herbicidal effect rating, MOOVA",[20],0.0
same,"Herbicidal effect rating, SAGPY",[21],0.0
